Data as given in the supplement of paper PMC11451515.

Test system: NOMO1
Experiment: cell viability relative to DMSO control; higher = less cytotoxic
Settings: 48 h
Outline: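 Library compounds in DMSO were pin-dosed into 1536-well plates (5 μl) holding NOMO1 or SEM (500 cells/well) or P12-Ichikawa (1000 cells/well) leukemia cells, across an 11-point threefold series of 47 μM to 0.79 nM. Each cell line had been adapted for at least four passages in each medium. CellTiter-Glo One luminescence was read after 48 h at 37°C. Viability is the per-plate percentage relative to DMSO wells, with cell-free wells as background.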

[1] = HPLM + 10% dialyzed FBS, 0.000781 µM
[2] = HPLM + 10% dialyzed FBS, 0.00234 µM
[3] = HPLM + 10% dialyzed FBS, 0.00702 µM
[4] = HPLM + 10% dialyzed FBS, 0.0211 µM
[5] = HPLM + 10% dialyzed FBS, 0.0632 µM
[6] = HPLM + 10% dialyzed FBS, 0.19 µM
[7] = HPLM + 10% dialyzed FBS, 0.569 µM
[8] = HPLM + 10% dialyzed FBS, 1.71 µM
[9] = HPLM + 10% dialyzed FBS, 5.12 µM
[10] = HPLM + 10% dialyzed FBS, 15.4 µM
[11] = HPLM + 10% dialyzed FBS, 46.1 µM
[12] = RPMI 5 mM glucose + 10% FBS, 0.000781 µM
[13] = RPMI 5 mM glucose + 10% FBS, 0.00234 µM
[14] = RPMI 5 mM glucose + 10% FBS, 0.00702 µM
[15] = RPMI 5 mM glucose + 10% FBS, 0.0211 µM
[16] = RPMI 5 mM glucose + 10% FBS, 0.0632 µM
[17] = RPMI 5 mM glucose + 10% FBS, 0.19 µM
[18] = RPMI 5 mM glucose + 10% FBS, 0.569 µM
[19] = RPMI 5 mM glucose + 10% FBS, 1.71 µM
[20] = RPMI 5 mM glucose + 10% FBS, 5.12 µM
[21] = RPMI 5 mM glucose + 10% FBS, 15.4 µM
[22] = RPMI 5 mM glucose + 10% FBS, 46.1 µM
[23] = RPMI 5 mM glucose + 10% dialyzed FBS, 0.000781 µM
[24] = RPMI 5 mM glucose + 10% dialyzed FBS, 0.00234 µM
[25] = RPMI 5 mM glucose + 10% dialyzed FBS, 0.00702 µM
[26] = RPMI 5 mM glucose + 10% dialyzed FBS, 0.0211 µM
[27] = RPMI 5 mM glucose + 10% dialyzed FBS, 0.0632 µM
[28] = RPMI 5 mM glucose + 10% dialyzed FBS, 0.19 µM
[29] = RPMI 5 mM glucose + 10% dialyzed FBS, 0.569 µM
[30] = RPMI 5 mM glucose + 10% dialyzed FBS, 1.71 µM
[31] = RPMI 5 mM glucose + 10% dialyzed FBS, 5.12 µM
[32] = RPMI 5 mM glucose + 10% dialyzed FBS, 15.4 µM
[33] = RPMI 5 mM glucose + 10% dialyzed FBS, 46.1 µM

CC(C)C(C)/C=C/C(C)C1CCC2C3=CC=C4CC(O)CCC4(C)C3CCC21C (stereo unspecified)
cell viability [1]: 104%
cell viability [2]: 101%
cell viability [3]: 115%
cell viability [4]: 111%
cell viability [5]: 104%
cell viability [6]: 99.8%
cell viability [7]: 112%
cell viability [8]: 106%
cell viability [9]: 111%
cell viability [10]: 110%
cell viability [11]: 94.8%
cell viability [12]: 86.5%
cell viability [13]: 97.2%
cell viability [14]: 90.6%
cell viability [15]: 88.4%
cell viability [16]: 96.7%
cell viability [17]: 88.6%
cell viability [18]: 89.9%
cell viability [19]: 92%
cell viability [20]: 85.1%
cell viability [21]: 83%
cell viability [22]: 82.7%
cell viability [23]: 99.1%
cell viability [24]: 88.7%
cell viability [25]: 92.4%
cell viability [26]: 89.8%
cell viability [27]: 99.7%
cell viability [28]: 104%
cell viability [29]: 94.6%
cell viability [30]: 97.7%
cell viability [31]: 86.4%
cell viability [32]: 81.6%
cell viability [33]: 90.4%

CC(C)NCC(O)COc1ccc(COCCOC(C)C)cc1 (stereo unspecified)
cell viability [1]: 114%
cell viability [2]: 110%
cell viability [3]: 121%
cell viability [4]: 113%
cell viability [5]: 122%
cell viability [6]: 99.8%
cell viability [7]: 118%
cell viability [8]: 109%
cell viability [9]: 109%
cell viability [10]: 95.4%
cell viability [11]: 73.1%
cell viability [12]: 108%
cell viability [13]: 116%
cell viability [14]: 108%
cell viability [15]: 107%
cell viability [16]: 114%
cell viability [17]: 116%
cell viability [18]: 107%
cell viability [19]: 110%
cell viability [20]: 97.3%
cell viability [21]: 103%
cell viability [22]: 91.4%
cell viability [23]: 111%
cell viability [24]: 111%
cell viability [25]: 119%
cell viability [26]: 105%
cell viability [27]: 129%
cell viability [28]: 111%
cell viability [29]: 111%
cell viability [30]: 99.7%
cell viability [31]: 111%
cell viability [32]: 116%
cell viability [33]: 88.7%

COC1CCC(CC1)N(C(=O)C2CCC(C)CC2)C3=C(SC(=C3)\C4=C\CCCC4)C(O)=O (stereo unspecified)
cell viability [1]: 120%
cell viability [2]: 120%
cell viability [3]: 109%
cell viability [4]: 127%
cell viability [5]: 128%
cell viability [6]: 130%
cell viability [7]: 107%
cell viability [8]: 112%
cell viability [9]: 106%
cell viability [10]: 90.9%
cell viability [11]: 52.6%
cell viability [12]: 103%
cell viability [13]: 115%
cell viability [14]: 104%
cell viability [15]: 119%
cell viability [16]: 102%
cell viability [17]: 104%
cell viability [18]: 91.5%
cell viability [19]: 105%
cell viability [20]: 103%
cell viability [21]: 90.7%
cell viability [22]: 96%
cell viability [23]: 102%
cell viability [24]: 102%
cell viability [25]: 120%
cell viability [26]: 102%
cell viability [27]: 110%
cell viability [28]: 99.4%
cell viability [29]: 97%
cell viability [30]: 109%
cell viability [31]: 104%
cell viability [32]: 93.4%
cell viability [33]: 84.5%

COC1=CC=CC=C1C2=CC=CC(=C2)C/3=C(O)/C4=CC(=C(Cl)C=C4NC3=O)C#N
cell viability [1]: 110%
cell viability [2]: 120%
cell viability [3]: 109%
cell viability [4]: 109%
cell viability [5]: 129%
cell viability [6]: 114%
cell viability [7]: 107%
cell viability [8]: 103%
cell viability [9]: 31.2%
cell viability [10]: 5.52%
cell viability [11]: 1.77%
cell viability [12]: 89.6%
cell viability [13]: 111%
cell viability [14]: 113%
cell viability [15]: 98.5%
cell viability [16]: 107%
cell viability [17]: 108%
cell viability [18]: 113%
cell viability [19]: 110%
cell viability [20]: 82.4%
cell viability [21]: 13.4%
cell viability [22]: 2.44%
cell viability [23]: 92.2%
cell viability [24]: 103%
cell viability [25]: 95.4%
cell viability [26]: 93.6%
cell viability [27]: 96.4%
cell viability [28]: 88.3%
cell viability [29]: 104%
cell viability [30]: 108%
cell viability [31]: 84.5%
cell viability [32]: 21%
cell viability [33]: 4.29%

COc1c(C)cnc(Cn2cnc3c(Cl)nc(N)nc32)c1C
cell viability [1]: 108%
cell viability [2]: 112%
cell viability [3]: 138%
cell viability [4]: 120%
cell viability [5]: 151%
cell viability [6]: 129%
cell viability [7]: 80.8%
cell viability [8]: 36.7%
cell viability [9]: 19.8%
cell viability [10]: 18.2%
cell viability [11]: 14.3%
cell viability [12]: 117%
cell viability [13]: 112%
cell viability [14]: 115%
cell viability [15]: 139%
cell viability [16]: 129%
cell viability [17]: 119%
cell viability [18]: 91.7%
cell viability [19]: 26.5%
cell viability [20]: 18.6%
cell viability [21]: 14.3%
cell viability [22]: 15.7%
cell viability [23]: 119%
cell viability [24]: 122%
cell viability [25]: 121%
cell viability [26]: 132%
cell viability [27]: 128%
cell viability [28]: 101%
cell viability [29]: 90.1%
cell viability [30]: 34.9%
cell viability [31]: 18.2%
cell viability [32]: 18%
cell viability [33]: 20.2%

C[C@@H](NC1=CC=CC=C1C(O)=O)C/2=C/C(=C\N3C(=O)/C=C(\N=C23)N4CCOCC4)C
cell viability [1]: 81.1%
cell viability [2]: 88.7%
cell viability [3]: 89.8%
cell viability [4]: 93.6%
cell viability [5]: 99.7%
cell viability [6]: 81.6%
cell viability [7]: 82.6%
cell viability [8]: 61.7%
cell viability [9]: 40.3%
cell viability [10]: 29.4%
cell viability [11]: 11.7%
cell viability [12]: 79.1%
cell viability [13]: 73.6%
cell viability [14]: 79.9%
cell viability [15]: 91.2%
cell viability [16]: 88.2%
cell viability [17]: 87.5%
cell viability [18]: 78%
cell viability [19]: 77.7%
cell viability [20]: 48.3%
cell viability [21]: 27.7%
cell viability [22]: 11.1%
cell viability [23]: 74.8%
cell viability [24]: 82.9%
cell viability [25]: 95.2%
cell viability [26]: 88.9%
cell viability [27]: 87.8%
cell viability [28]: 93.4%
cell viability [29]: 83%
cell viability [30]: 65.2%
cell viability [31]: 41.8%
cell viability [32]: 33.1%
cell viability [33]: 7.82%

CC(=O)O.Cc1c(-c2ccc(O)cc2)n(Cc2ccc(OCCN3CCCCCC3)cc2)c2ccc(O)cc12
cell viability [1]: 95.5%
cell viability [2]: 106%
cell viability [3]: 92.7%
cell viability [4]: 95.6%
cell viability [5]: 89.6%
cell viability [6]: 102%
cell viability [7]: 111%
cell viability [8]: 103%
cell viability [9]: 106%
cell viability [10]: 94.1%
cell viability [11]: 92.5%
cell viability [12]: 86.3%
cell viability [13]: 103%
cell viability [14]: 92.3%
cell viability [15]: 92.7%
cell viability [16]: 88.5%
cell viability [17]: 105%
cell viability [18]: 92.3%
cell viability [19]: 87.5%
cell viability [20]: 96.5%
cell viability [21]: 93.9%
cell viability [22]: 88.6%
cell viability [23]: 97.5%
cell viability [24]: 97.9%
cell viability [25]: 91.4%
cell viability [26]: 96%
cell viability [27]: 99.2%
cell viability [28]: 107%
cell viability [29]: 103%
cell viability [30]: 98.1%
cell viability [31]: 102%
cell viability [32]: 101%
cell viability [33]: 86.7%
